The values below come from US20050197338A1, “Substituted pyrazole urea compounds for the treatment of inflammation” (priority 2003, published 2005).

The structures appear in SMILES notation.

In the test the target is T1, Rat IKK-2 (Rattus norvegicus, UniProt Q9QY78).
T1 sequence (Q9QY78 1-757): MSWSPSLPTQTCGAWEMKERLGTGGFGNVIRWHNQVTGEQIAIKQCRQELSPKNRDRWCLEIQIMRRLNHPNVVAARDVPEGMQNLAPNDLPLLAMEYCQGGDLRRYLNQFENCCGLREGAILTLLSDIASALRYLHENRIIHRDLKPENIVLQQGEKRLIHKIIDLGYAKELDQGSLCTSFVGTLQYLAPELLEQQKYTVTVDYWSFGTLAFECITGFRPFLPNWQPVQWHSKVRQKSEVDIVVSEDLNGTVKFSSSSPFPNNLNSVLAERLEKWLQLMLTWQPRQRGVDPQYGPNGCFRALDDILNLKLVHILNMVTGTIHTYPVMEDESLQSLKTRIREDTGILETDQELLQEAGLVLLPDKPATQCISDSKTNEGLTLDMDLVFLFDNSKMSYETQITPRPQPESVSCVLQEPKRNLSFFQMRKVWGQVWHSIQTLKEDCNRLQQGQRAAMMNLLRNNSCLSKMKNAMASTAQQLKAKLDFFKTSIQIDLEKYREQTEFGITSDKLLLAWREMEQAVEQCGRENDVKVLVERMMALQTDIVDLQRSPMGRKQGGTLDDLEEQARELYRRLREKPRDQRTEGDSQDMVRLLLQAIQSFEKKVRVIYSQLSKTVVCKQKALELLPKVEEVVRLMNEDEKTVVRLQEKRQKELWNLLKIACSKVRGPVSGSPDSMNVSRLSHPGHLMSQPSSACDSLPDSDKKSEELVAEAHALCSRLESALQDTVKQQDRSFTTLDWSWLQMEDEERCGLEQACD
Put plainly: Rat IKK-2 enzyme assay. It is filed as biochemical. As to conditions: read-out: IC50 (μM) rIKK-2. How it is done:
Kinase activity was measured using a biotinylated […] peptide (Gly-Leu-Lys-Lys-Glu-Arg-Leu-Leu-Asp-Asp-Arg-His-Asp-Ser32-Gly-Leu-Asp-Ser36-Met-Lys-Asp-Glu-Glu) (American Peptide Co.). 20 μL of the standard reaction mixture contained 5 μM biotinylated IκBα peptide, 0.1 μCi/reaction [γ-^33P] ATP (Amersham) (about 1×10^5 cpm), 1 μM ATP (Sigma), 1 mM DTT (Sigma), 2 mM MgCl2 (Sigma), 2 mM MnCl2 (Sigma), 10 mM NaF (Sigma), 25 mM Hepes (Sigma) buffer, pH. 7.6 and 20 μL enzyme solution (50 nM/rxn or 200 ng/rxn) and 10 μL inhibitor in a final volume of 50 μL. After incubation at 25° C. for 60 min, 150 μL resin was added to each well to stop the reaction. Resin was mixed and allowed to settle for 1 h and 50 μL of supernatant was removed to a Micolite 2 flat bottom plate (Dynex). 150 μL of scintillation fluid (Microscint 40) (Packard) was added to each well. Incorporation of [γ-^33P] ATP was measured using a Top-Count NXT (Packard).

As to `NC(=O)Nc1cn(-c2cccc(Cl)c2F)nc1C(N)=O` [Example 273, 1-(3-chloro-2-fluoro-phenyl)-4-ureido-1 h-pyrazole-3-carboxylic acid amide], the IC50 was found to be 0.203 µM.
Next, `NC(=O)Nc1cn(-c2ccc(OC(F)(F)F)cc2)nc1C(N)=O` [Example 328, 4-[(aminocarbonyl)amino]-1-[4-(trifluoromethoxy)phenyl]-1H-pyrazole-3-carboxamide]: 0.446 µM; `NC(=O)Nc1cn(-c2ccc(S(=O)(=O)c3ccncc3)cc2)nc1C(N)=O` [Example 295, 1-(3-carbamoyl-1-(4-(pyridin-4-ylsulfonyl)phenyl)-1H-pyrazol-4-yl)urea]: 0.0369 µM; `NC(=O)Nc1cn(-c2ccc(Sc3cccc(Br)c3)cc2)nc1C(N)=O` [Example 293, 1-(1-(4-(3-bromophenylthio)phenyl)-3-carbamoyl-1H-pyrazol-4-yl)urea]: 4.82 µM.
`NC(=O)Nc1cn(-c2cccc(C(F)(F)F)c2)nc1C(N)=O` [Example 317, 1-(3-trifluoromethyl-phenyl)-4-ureido-1H-pyrazole-3-carboxylic acid amide]: the IC50 amounted to 1.46 µM.
For `NC(=O)Nc1cn(-c2ccc(-c3cc(F)ccc3O)c(F)c2)nc1C(N)=O` [Example 263, 4-[(aminocarbonyl)amino]-1-(2,5′-difluoro-2′-hydroxy-1,1′-biphenyl-4-yl)-1H-pyrazole-3-carboxamide], the IC50 amounted to 0.482 µM.
In the case of `Cc1cc(-n2cc(NC(N)=O)c(C(N)=O)n2)ccc1OCc1ccccc1` [Example 307, 4-[(aminocarbonyl)amino]-1-[4-(benzyloxy)-3-methylphenyl]-1H-pyrazole-3-carboxamide], the IC50 stood at 6.44 µM.
Next, `Cc1cccc(-n2cc(NC(N)=O)c(C(N)=O)n2)c1` [Example 315, 1-m-tolyl-4-ureido-1H-pyrazole-3-carboxylic acid amide]: 0.632 µM; `Cc1cc(-n2cc(NC(N)=O)c(C(N)=O)n2)ccc1F` [Example 304, 4-[(aminocarbonyl)amino]-1-(4-fluoro-3-methylphenyl)-1H-pyrazole-3-carboxamide]: 0.547 µM; `CCCc1ccc(-n2cc(NC(N)=O)c(C(N)=O)n2)cc1` [Example 305, 4-[(aminocarbonyl)amino]-1-(4-propylphenyl)-1H-pyrazole-3-carboxamide]: 0.098 µM.
Next, `Cc1cc(O)ccc1-c1ccc(-n2cc(NC(N)=O)c(C(N)=O)n2)cc1C` [Example 309, 1-(4′-hydroxy-2,2′-dimethyl-biphenyl-4-yl)-4-ureido-1H-pyrazole-3-carboxylic acid amide]: 0.086 µM.
`NC(=O)COc1ccccc1-c1ccc(-n2cc(NC(N)=O)c(C(N)=O)n2)cc1F` [Example 266, 4-[(aminocarbonyl)amino]-1-[2′-(2-amino-2-oxoethoxy)-2-fluoro-1,1′-biphenyl-4-yl]-1H-pyrazole-3-carboxamide]: the IC50 worked out at 0.392 µM.
As for `NC(=O)Nc1cn(-c2ccc(S(=O)(=O)c3ccccc3F)c(Cl)c2)nc1C(N)=O` [Example 271, 4-[(aminocarbonyl)amino]-1-{3-chloro-4-[(2-fluorophenyl)sulfonyl]phenyl}-1H-pyrazole-3-carboxamide], the IC50 was determined as 0.956 µM.
Next, `NC(=O)Nc1cn(-c2cccc3c2sc2ccccc23)nc1C(N)=O` [Example 324, 4-[(aminocarbonyl)amino]-1-dibenzo[b,d]thien-4-yl-1H-pyrazole-3-carboxamide]: more than 20 µM.
Next, `CCCOc1ccc(-n2cc(NC(N)=O)c(C(N)=O)n2)cc1Cl` [Example 334, 4-[(aminocarbonyl)amino]-1-(3-chloro-4-propoxyphenyl)-1H-pyrazole-3-carboxamide]: 2.42 µM; `CCOc1cc(-n2cc(NC(N)=O)c(C(N)=O)n2)ccc1-c1ccc(OCC(N)=O)cc1` [Example 275, 4-[(aminocarbonyl)amino]-1-[4′-(2-amino-2-oxoethoxy)-2-ethoxy-1,1′-biphenyl-4-yl]-1H-pyrazole-3-carboxamide]: 10.8 µM; `Cc1cccc(Sc2ccc(-n3cc(NC(N)=O)c(C(N)=O)n3)cc2)c1` [Example 292, 1-(1-(4-(m-tolylthio)phenyl)-3-carbamoyl-1H-pyrazol-4-yl)urea]: 4.16 µM.
`CCCOc1ccc(-n2cc(NC(N)=O)c(C(N)=O)n2)cc1` [Example 332, 4-[(aminocarbonyl)amino]-1-(4-propoxyphenyl)-1H-pyrazole-3-carboxamide]: the IC50 was found to be 1.08 µM.
Next, `Cc1ccc(-n2cc(NC(N)=O)c(C(N)=O)n2)cc1F` [Example 326, 4-[(aminocarbonyl)amino]-1-(3-fluoro-4-methylphenyl)-1H-pyrazole-3-carboxamide]: 0.365 µM; `CCc1ccccc1-n1cc(NC(N)=O)c(C(N)=O)n1` [Example 314, 1-(2-ethyl-phenyl)-4-ureido-1H-pyrazole-3-carboxylic acid amide]: more than 20 µM.
Consider `Cc1cc(-n2cc(NC(N)=O)c(C(N)=O)n2)ccc1-c1ccc(O)cc1` [Example 308, 1-(4′-hydroxy-2-methyl-biphenyl-4-yl)-4-ureido-1H-pyrazole-3-carboxylic acid amide], for which the IC50 was determined as 0.099 µM.
`Cc1cc(-n2cc(NC(N)=O)c(C(N)=O)n2)ccc1-c1ccc(O)c(F)c1` [Example 310, 1-(3′-fluoro-4′-hydroxy-2-methyl-biphenyl-4-yl)-4-ureido-1H-pyrazole-3-carboxylic acid amide]: the IC50 was 0.095 µM.
